# Measurements: BindingDB's records for doi:10.3109/14756366.2012.742517 (Seoul National University, 2014)
# Biological target: T1, Pancreatic triacylglycerol lipase (Sus scrofa, UniProt P00591)
# T1 sequence (P00591 whole entry): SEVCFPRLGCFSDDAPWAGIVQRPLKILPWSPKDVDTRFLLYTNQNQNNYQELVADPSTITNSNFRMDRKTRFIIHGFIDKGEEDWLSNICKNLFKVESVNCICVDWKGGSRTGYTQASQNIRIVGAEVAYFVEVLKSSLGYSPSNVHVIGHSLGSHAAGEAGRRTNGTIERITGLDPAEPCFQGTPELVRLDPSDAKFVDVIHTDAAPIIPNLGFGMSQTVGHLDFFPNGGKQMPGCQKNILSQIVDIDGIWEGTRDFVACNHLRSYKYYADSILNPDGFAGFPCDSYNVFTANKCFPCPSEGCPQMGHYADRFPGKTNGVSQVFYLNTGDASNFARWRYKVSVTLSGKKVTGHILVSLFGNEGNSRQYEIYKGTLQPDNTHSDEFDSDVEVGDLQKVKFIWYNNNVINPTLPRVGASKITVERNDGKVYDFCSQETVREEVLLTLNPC
# Assay: In Vitro Pancreatic Lipase Assay
# Settings: pH 7.4; 37 °C
# Experimental: The mixedsolution that composed of […] of 0.1mM 4-MU oleate, […] of the above-mentioned buffer and […] of test samples was prepared before adding lipase. The enzymatic reaction was started by adding 0.05mL of 1 U/mL pancreatic lipase and incubation was carried out for 20 min at 37 °C. The amount of 4-methylumbelliferon released by the enzyme was monitored at an emission of 450 nm and excitation wavelength of 320 nm using a fluorescence spectrophotometer.
Structure (SMILES),IC50 [µM],Ki [µM]
"COc1cc(CCc2ccccc2O)cc(OC)c1 [3,5-Dimethoxy-2'hydroxybibenzyl (7)]",44.1,9.28
COc1cc(O)cc(CCc2ccccc2O)c1 [2-(3-hydroxy-5-methoxyphenethyl)phenol],30.1,6.28
"COc1c(O)cccc1CCc1cc(O)cc(O)c1 [3,3',5-Trihydroxy-2'-methoxybibenzyl (3)]",8.77,1.82
"Oc1cc(O)cc(CCc2ccccc2O)c1 [2',3,5-Trihydroxybibenzyl (2)]",29.2,6.45
"Oc1cc(O)c2c(c1)-c1ccccc1CCO2 [9,10-Dihydro-dibenzoxepin-2,4-diol (15)]",> 50,–
O=C(/C=C/c1ccc(O)cc1)OCCc1ccc(O)cc1,34.8,7.49
"Oc1ccc(CC[C@@H](O)C[C@H](O)CCc2ccc(O)cc2)cc1 [(3R,5R)-3,5-dihydroxy-1,7-bis(4-hydroxyphenyl)-3,5-heptanediol (22)]",> 50,–
"COc1cc(CCc2ccccc2O)cc(O)c1OC [3,4-Dimethoxy-2',5-dihydroxybibenzyl (9)]",> 50,–
"COc1cc(O)c2c(c1)CCc1cc(O)ccc1-2 [2,5-Dihydroxy-7-methoxy-9,10-dihydrophenanthrene (14)]",25.1,4.96
"COc1cc(CC[C@@H](O)C[C@H](O)CCc2ccc(O)c(OC)c2)ccc1O [(3R,5R)-1,7-bis(4-hydroxy-3-methoxyphenyl)-3,5-heptanediol]",> 50,–
COc1cc(CCc2cc(O)cc(O)c2)ccc1O [Tristin (1)],13.5,2.75
"COc1cc(CCc2ccccc2)cc(OC)c1 [3,5-Dimethoxybibenzyl (8)]",> 50,–
"COc1cc2c(ccc3cc(O)cc(OC)c32)cc1O [3,5-Dimethoxy-2,7-phenanthrenediol (11)]",12.7,2.67
"COc1cc(O)cc2c1OCCc1ccccc1-2 [9,10-Dihydro-4-methoxy-dibenzoxepin-2-ol (16)]",> 50,–

# The remaining lines, values ahead:
IC50 [µM],Ki [µM],Structure (SMILES)
40.6,8.57,COc1cc(O)cc2c1-c1c(O)cccc1CC2 [Hircinol (13)]
16.4,3.34,"O=C(/C=C/C=C/c1ccc(O)cc1)/C=C/c1ccc(O)cc1 [(1E,4E,6E)-1,7-bis(4-hydroxyphenyl)-1,4,6-heptatrien-3-one (19)]"
45.7,9.66,COc1cc(CCc2ccccc2O)cc(OC)c1OC [Batatasin V (10)]
> 50,–,COc1cc(/C=C/C(=O)OCCc2ccc(O)cc2)ccc1O [p-hydroxyphenethyl trans-ferulate]
9.12,1.92,"O=C(/C=C/C=C/c1ccc(O)cc1)CCc1ccc(O)cc1 [(4E,6E)-1,7-bis(4-hydroxyphenyl)-4,6-heptadien-3-one (20)]"
32.3,6.79,COc1cc(O)cc(CCc2cccc(O)c2)c1 [Batatasin III (4)]
11.1,2.17,"COc1cc(/C=C/C=C/C(=O)CCc2ccc(O)cc2)ccc1O [(4E,6E)-7-(4-hydroxy-3-methoxyphenyl)-1-(4-hydroxyphenyl)-4,6-heptadien-3-one (21)]"
> 50,–,COc1cc(OC)c2c(ccc3cc(OC)c(O)cc32)c1 [Batatasin I (12)]
